Test system: IgE of peanut allergic patients
Assay: Immunodot assay with sera of peanut allergic patients
Format: binding, human
Conditions: peptide-pIII fusion proteins spotted on nitrocellulose, patient sera diluted 1:10, FIG. 3
Description: Three selected IgE epitope-like peptides (ELP 2, ELP 5, ELP 6) were extracted as recombinant fusions with bacteriophage minor coat protein pIII from the periplasm of host bacteria with osmotic shock. Two target-unrelated control peptides also fused to protein pIII (binders to streptavidin and human leptin) were extracted in the same way and served as negative controls (C1, C2). Briefly, E. coli host bacteria were infected with individual phage clones and grown for 2 hours at 37° C. with agitation. Bacteria pellets were spun down at 5000×g for 10 min and resuspended in 1 ml of an ice-cold solution consisting of 20% sucrose, 200 mM Tris-HCl pH 8.0 and 1 mM EDTA supplemented with protease inhibitor cocktail (EZBlock™, BioVision, San Francisco, USA) at a dilution of 1:200. After 1 h incubation on ice with occasional stirring supernatants were harvested by centrifugation at 12000×g for 20 minutes at 4° C. Resulting periplasmic extracts containing […] fusion proteins were concentrated (4-5 fold) and sucrose buffer exchanged for PBS by ultrafiltration with 10 kDa cut-off membrane (Microsep Advance Centrifugal Device, Pall Corporation, New York, USA). For immunoprecipitation of each selected peptide, 20 μg of affinity purified rabbit IgG against Ara h 2 (INDOOR Biotechnologies, Charlottesville, Virginia, USA) were covalently coupled to 1 mg of Dynabeads M-280 Tosylactivated™ (Thermo Fisher Scientific) according to manufacturer's protocol. Control peptides were immunoprecipitated in the same way using 10 μg of anti-human leptin antibody (R and D Systems Cat #MAB398 RRID:AB_2136056) coupled to 1 mg of Dynabeads M-280 Tosylactivated™ in the case of peptide with the affinity toward human leptin and 0.5 mg of streptavidin-coupled beads (Dynabeads™ MyOne™ Streptavidin T1, Thermofisher Scientific) in the case of peptide with the affinity towards streptavidin. […]

| Substance | binding to IgE of peanut allergic patients |
| --- | --- |
| DHPRFNRDNDVA (IgE epitope-like peptide) [ELP 2] | bind to patients' IgE |
| DHPRFST (IgE epitope-like peptide) [ELP 6] | bind to patients' IgE |
| DHPRYGP (IgE epitope-like peptide) [ELP 5] | bind to patients' IgE |

Source: patent publication US12415839B2, “IgE epitope-like peptides and uses thereof” (Univerza v Ljubljani, priority 2018, dated 2025)
